From the supplement of paper PMC10307832

Columns and labels:
Assay in all cases: relative viability (nuclei count vs DMSO), 5 days (fraction); higher = more cells survive
[1] = compound: C1CNCCC1C2=CC(=NN2)C3=CC=NC=C3 + Nc1nc2[nH]cc(CCc3ccc(C(=O)N[C@@H](CCC(=O)O)C(=O)O)cc3)c2c(=O)[nH]1 [Pemetrexed] (partner 0.2 µM)
In short: (§1)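 For relative viability, nuclei counts in treated wells were divided by those in vehicle wells. Lung cancer cell lines had been pin-tool dosed in 1536-well plates the day after seeding and cultured for 5 days, then fixed and stained in one step (final 0.05% Triton X-100, 1% formaldehyde, 1 ug/ml Hoechst) and imaged at 4×. Doses were one drug alone or a fixed anchor-drug dose plus five library-drug doses (not always all listed) in √10 steps, and values are duplicate-plate medians.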

[2] = compound: C[C@@H](N)c1ccc(C(=O)Nc2ccnc3[nH]ccc23)cc1 + CC(C)C[C@H](NC(=O)[C@H](Cc1ccccc1)NC(=O)c1cnccn1)B(O)O [Bortezomib] (partner 0.002 µM)
In short: as §1

[3] = compound: C[C@@H](N)c1ccc(C(=O)Nc2ccnc3[nH]ccc23)cc1 + CCNC(=O)c1noc(-c2cc(C(C)C)c(O)cc2O)c1-c1ccc(CN2CCOCC2)cc1 [Luminespib] (partner 0.01 µM)
In short: as §1

[4] = compound: O[C@H]1CC[C@H](Nc2ncc3nc(Nc4c(F)cc(F)cc4F)n([C@H]4CCOC4)c3n2)CC1 [Tanzisertib] + CCNC(=O)c1noc(-c2cc(C(C)C)c(O)cc2O)c1-c1ccc(CN2CCOCC2)cc1 [Luminespib] (partner 0.01 µM)
In short: as §1

Cell Line	relative viability ([1]; first compound 0.08 µM)	relative viability ([1]; first compound 0.8 µM)	relative viability ([1]; first compound 2.53 µM)	relative viability ([1]; first compound 8 µM)	relative viability ([2]; first compound 0.04 µM)	relative viability ([2]; first compound 0.1265 µM)	relative viability ([2]; first compound 0.4 µM)	relative viability ([2]; first compound 1.265 µM)	relative viability ([2]; first compound 4 µM)	relative viability ([3]; first compound 0.04 µM)	relative viability ([3]; first compound 0.1265 µM)	relative viability ([3]; first compound 0.4 µM)	relative viability ([3]; first compound 1.265 µM)	relative viability ([3]; first compound 4 µM)	relative viability ([4]; first compound 0.08 µM)	relative viability ([4]; first compound 0.253 µM)	relative viability ([4]; first compound 0.8 µM)	relative viability ([4]; first compound 2.53 µM)	relative viability ([4]; first compound 8 µM)
LCLC-97TM1	0.186	0.161	0.17	0.173	0.827	0.619	0.764	0.603	0.375	0.828	0.826	1.06	0.908	0.857	0.956	0.669	0.803	0.824	0.788
LCLC-103H	0.492	0.5	0.493	0.487	1.13	0.819	1.2	0.915	0.856	1.15	0.914	0.956	0.911	0.69	1	0.888	0.941	1.05	1.12
LOU-NH91	0.403	0.63	0.367	0.351	0.504	0.56	0.515	0.468	0.429	0.283	0.334	0.381	0.33	0.316	0.431	0.345	0.371	0.33	0.349
LU99A	0.218	0.181	0.153	0.337	0.947	1.23	1.23	0.88	0.78	–	0.303	0.323	0.251	0.292	0.204	0.238	0.239	0.26	0.227
LXF-289	0.936	0.967	0.856	0.814	1.01	0.976	1.07	1.05	0.952	0.711	0.616	0.785	0.691	0.534	0.66	0.621	0.684	0.675	0.643
NCI-H23	0.719	–	0.808	0.818	1.21	1.17	1.11	–	1.03	0.198	0.235	0.203	–	0.21	0.262	0.227	0.203	0.228	0.199
NCI-H322M	0.636	0.589	0.641	0.667	1.4	1.38	1.34	–	1.72	1.08	1.1	1.03	–	0.742	0.834	0.751	0.87	0.932	0.951
NCI-H441	0.264	0.251	0.247	0.243	0.599	0.472	0.693	0.57	0.449	0.451	0.342	0.326	–	0.403	0.312	0.338	0.29	0.279	0.314
NCI-H460	0.0816	0.066	0.0652	0.0683	0.996	1.15	1.11	1.17	1.09	0.04	0.0445	0.0267	0.0276	0.0227	0.0366	0.0372	0.0359	0.0394	0.0394
NCI-H520	0.652	0.743	0.637	0.517	0.756	0.716	0.628	0.638	0.54	0.192	0.188	0.24	0.218	0.213	0.255	0.253	0.218	0.227	0.202
NCI-H596	0.483	0.476	0.525	0.478	1.05	0.856	1.14	1.23	1.26	1.33	0.912	0.98	–	0.975	1.1	1.16	1.22	0.96	0.892
NCI-H647	0.176	0.146	0.174	0.189	0.846	1.02	1.09	0.868	0.869	0.133	0.228	0.139	0.14	0.0908	0.152	0.12	0.196	0.158	0.336
NCI-H650	0.956	0.967	0.951	1.02	0.586	0.695	0.86	–	0.64	–	0.928	0.844	0.718	0.635	0.725	0.915	0.884	0.936	0.855
NCI-H661	0.967	0.942	0.939	0.891	0.739	0.844	0.94	0.76	0.737	0.921	0.923	0.873	0.781	0.811	0.903	0.943	0.902	0.952	0.955
NCI-H838	0.24	0.259	0.248	0.284	0.624	0.758	0.605	0.393	0.342	0.355	0.315	0.32	0.282	0.222	0.293	0.34	0.277	0.248	0.209
NCI-H1355	1.09	1.08	1.07	1.02	1.04	1.22	1.35	–	1.26	0.759	0.72	0.807	0.66	0.625	0.77	0.697	0.805	0.725	0.628
NCI-H1437	0.334	0.312	0.363	0.303	0.623	0.53	0.563	0.427	0.555	1.1	1.05	1.21	1.13	0.907	1.18	1.14	1.04	1.27	1.21
NCI-H1563	0.818	0.662	0.961	0.904	0.776	0.798	0.777	0.699	0.897	0.514	0.484	0.499	0.508	0.514	0.485	0.498	0.524	0.484	0.446

Cell Line	relative viability ([1]; first compound 0.08 µM)	relative viability ([1]; first compound 0.8 µM)	relative viability ([1]; first compound 2.53 µM)	relative viability ([1]; first compound 8 µM)	relative viability ([2]; first compound 0.04 µM)	relative viability ([2]; first compound 0.1265 µM)	relative viability ([2]; first compound 0.4 µM)	relative viability ([2]; first compound 1.265 µM)	relative viability ([2]; first compound 4 µM)	relative viability ([3]; first compound 0.04 µM)	relative viability ([3]; first compound 0.1265 µM)	relative viability ([3]; first compound 0.4 µM)	relative viability ([3]; first compound 1.265 µM)	relative viability ([3]; first compound 4 µM)	relative viability ([4]; first compound 0.08 µM)	relative viability ([4]; first compound 0.253 µM)	relative viability ([4]; first compound 0.8 µM)	relative viability ([4]; first compound 2.53 µM)	relative viability ([4]; first compound 8 µM)
NCI-H1650	0.374	0.422	0.331	0.381	0.227	0.199	0.221	0.205	0.203	0.2	0.191	0.177	0.17	0.195	0.233	0.215	0.206	0.2	0.196
NCI-H1651	0.592	0.597	0.608	0.575	1.02	0.998	0.997	0.795	0.934	0.806	0.734	1.1	1.02	0.826	0.989	0.802	0.746	0.921	0.729
NCI-H1666	0.788	0.804	0.873	0.909	0.991	1.12	1.04	0.984	0.932	1.02	1.03	1.13	1.4	1.16	1.01	0.924	1.05	1.19	1.18
NCI-H1734	0.407	0.431	0.426	0.433	0.847	0.915	0.911	–	0.759	0.2	0.209	0.193	0.187	0.195	0.208	0.206	0.214	0.197	0.203
NCI-H1755	0.475	0.439	0.433	0.329	0.929	0.949	0.966	0.906	0.677	0.384	0.426	0.69	0.397	0.26	0.415	0.51	0.473	0.374	0.547
NCI-H1792	0.909	0.73	0.831	0.849	0.955	0.983	1.02	1.03	0.797	0.407	–	0.568	0.45	0.448	0.413	0.402	0.447	0.448	0.344
NCI-H1915	0.579	0.502	0.525	0.471	0.988	1.01	1.01	–	0.823	0.825	0.817	0.869	–	0.629	0.875	0.839	0.808	0.789	0.776
NCI-H1975	0.313	0.307	0.303	0.29	0.314	0.365	0.37	0.308	0.244	0.211	0.26	0.114	0.181	0.146	0.331	0.142	0.232	0.161	0.247
NCI-H1993	0.607	0.342	0.535	0.689	1.19	1.13	–	0.943	1.15	0.857	0.923	0.806	0.928	0.684	0.879	0.783	0.915	0.714	1
NCI-H2009	0.958	1.05	0.992	1.03	0.89	0.928	0.969	0.354	0.827	0.966	0.957	0.952	0.836	0.815	1.09	1.06	1.11	1.02	1.04
NCI-H2023	0.206	0.222	0.224	0.241	0.948	0.925	1.1	0.421	0.953	1	0.881	0.832	0.689	0.543	0.966	0.762	0.826	0.628	0.696
NCI-H2085	1.1	–	0.96	0.969	0.882	1	0.979	0.996	0.842	0.453	0.41	0.405	0.386	0.38	0.525	0.406	0.443	0.459	0.457
NCI-H2087	0.722	0.679	0.635	0.666	0.49	0.783	0.719	0.499	0.686	0.152	0.153	0.126	–	0.174	0.182	0.2	0.166	0.21	0.168
NCI-H2126	0.643	0.625	0.694	0.728	1.13	1.11	1.17	1.14	1.22	1	0.951	1.01	1.01	0.806	0.919	0.897	0.887	0.961	0.993
NCI-H2228	0.31	0.373	0.384	0.356	1.42	1.18	1.31	0.932	1.01	0.069	0.147	0.116	0.122	0.178	0.2	0.188	0.173	0.162	0.132
NCI-H2347	0.441	0.409	0.422	0.422	0.955	1.02	1.08	–	1.09	0.469	0.308	0.784	–	0.795	0.494	–	0.581	0.571	0.511
NCI-H2405	1.05	1.1	1.11	1	0.895	0.973	0.903	0.274	0.491	0.461	0.805	0.577	0.279	0.238	0.716	0.713	0.577	0.676	0.609
